The results in this text go back to PubChem BioAssay AID651677 (The Scripps Research Institute Molecular Screening Center, 2012).

This experiment concerns the target Perilipin-5 (Homo sapiens) + 1-acylglycerol-3-phosphate O-acyltransferase ABHD5 (Homo sapiens) (UniProt Q00G26+Q8WTS1). The experiment can be described thus: blockers of ABHD5 binding to perilipin-5 – biochemical, luminescence, dose response (AID 651677). Particulars: ABHD5-PLIN5 interaction.

Active and inactive are the calls of the source. How the calls were made is not given here.

Chain of Perilipin-5 (Homo sapiens) + 1-acylglycerol-3-phosphate O-acyltransferase ABHD5 (Homo sapiens) (Q00G26 whole entry, looked up): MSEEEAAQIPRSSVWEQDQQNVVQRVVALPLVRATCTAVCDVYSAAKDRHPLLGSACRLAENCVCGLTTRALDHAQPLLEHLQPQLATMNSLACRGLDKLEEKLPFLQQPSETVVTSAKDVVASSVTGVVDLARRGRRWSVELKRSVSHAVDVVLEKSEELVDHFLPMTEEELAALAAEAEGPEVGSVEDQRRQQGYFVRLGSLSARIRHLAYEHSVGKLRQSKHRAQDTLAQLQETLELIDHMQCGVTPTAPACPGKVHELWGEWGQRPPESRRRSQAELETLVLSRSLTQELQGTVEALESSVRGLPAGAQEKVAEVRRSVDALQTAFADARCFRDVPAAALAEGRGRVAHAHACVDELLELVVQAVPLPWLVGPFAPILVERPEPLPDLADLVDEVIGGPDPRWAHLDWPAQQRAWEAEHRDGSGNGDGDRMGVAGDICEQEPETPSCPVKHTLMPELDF
Chain of Perilipin-5 (Homo sapiens) + 1-acylglycerol-3-phosphate O-acyltransferase ABHD5 (Homo sapiens) (Q8WTS1 whole entry, looked up): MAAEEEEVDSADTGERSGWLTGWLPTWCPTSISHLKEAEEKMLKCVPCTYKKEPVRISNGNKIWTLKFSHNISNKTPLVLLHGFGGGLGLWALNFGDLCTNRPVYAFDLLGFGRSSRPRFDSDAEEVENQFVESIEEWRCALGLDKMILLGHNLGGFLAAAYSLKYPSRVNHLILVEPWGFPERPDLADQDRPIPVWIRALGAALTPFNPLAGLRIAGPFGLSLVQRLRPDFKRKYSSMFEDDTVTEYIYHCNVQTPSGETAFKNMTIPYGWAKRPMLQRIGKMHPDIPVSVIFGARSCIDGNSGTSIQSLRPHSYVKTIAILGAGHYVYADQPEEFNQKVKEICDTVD

As for `CN(C)CCCNC(=O)c1ccc(-c2nc(-c3ccc(Cl)cc3)cs2)cc1`, the IC50 entry is “inactive”.
As for `CC(=O)Oc1c(Cl)c(N2CCOCC2)c(OC(C)=O)c2ccccc12`, the figure is 4280 nM; as for `CCN(CC)CCOc1ccc(/C(=C(\Cl)c2ccccc2)c2ccccc2)cc1`, 2470 nM.
The value for `O=C(NCc1ccccc1)C(c1ccc(-c2ccccc2)cc1)n1c(=O)c(-c2ccco2)nc2ccccc21` (stereo not drawn) was 2700 nM; that for `CC(C)(C)NC(=O)C(c1ccncc1)n1c(=O)c(-c2ccco2)nc2ccccc21` (stereo not drawn) was 3660 nM; that for `Cc1cc(C)c(C(CC(=O)c2cccs2)C(C#N)C#N)c(C)c1` (stereo not drawn) was 8600 nM.
As for `C#CCN(C[C@@H]1[C@@H](OC(=O)NCc2ccccc2F)[C@@H](OC(=O)NCc2ccccc2F)Cn2c(=O)ccc(=O)n21)S(=O)(=O)c1ccc(C)cc1`, the figure is 5040 nM.
Regarding `COc1cc(/C=C/C(=O)c2ccc(Cl)s2)cc(OC)c1O`, the IC50 was 4480 nM.
As for `CC(C)(C)NC(=O)C(c1ccc(-c2ccccc2)cc1)n1c(=O)c(-c2ccco2)nc2ccccc21` (stereo not drawn), the figure is 1290 nM.
As for `O=C(NC1CCCCC1)C(c1ccnc2ccccc12)n1c(=O)c(-c2ccco2)nc2ccccc21` (stereo not drawn), the figure is 1660 nM.
As for `COc1ccc(OCc2cn(CC(=O)c3ccc(O)cc3)nn2)cc1`, the figure is 3070 nM.
Turning to `Cc1ccc2nc3cc([N+](=O)[O-])cc([N+](=O)[O-])c3cc2c1`, the IC50 was 600 nM.
For `CC(C)c1ccc(N2C=Nc3ccc(C(C)C)cc3C2)cc1`, the IC50 entry was “inactive”.
As for `O=C(NCc1ccccc1)C(c1cc2ccccc2o1)n1c(=O)c(-c2ccco2)nc2ccccc21` (stereo not drawn), the figure is 2420 nM; as for `CC(=O)Cc1cc(O)c2ccccc2c1OC(=O)c1ccccc1`, 1960 nM.
As for `Oc1ccc2sc(-c3ccccc3O)c(-c3ccc(OCCN4CCCCC4)cc3)c2c1`, the entry is “inactive”; as for `CCCCOC(=O)Nc1cc(C(=O)OC)ccc1C(=O)OC`, 6700 nM; as for `CSc1nnc(NC(=O)c2nc(S(=O)(=O)Cc3ccccc3)ncc2Cl)s1`, 3830 nM.
As for `CN(C)CCOc1ccc(-c2c(-c3ccccc3)sc3ccccc23)cc1`, the entry is “inactive”; as for `O=C(O)CC(O)(CC(=O)O)C(=O)O`, 5630 nM.
In the case of `CCCNC(=O)Nc1ccc2c(c1)N(C)C(=O)c1ccccc1S2`, the IC50 is 8610 nM.
As for `CC(CCc1ccco1)NC(=O)CCc1nnc2ccc(NCc3ccccc3Cl)nn12` (stereo not drawn), the IC50 was 8970 nM.
The value for `Cc1ccc(O)c(C(=O)C=Cc2ccccc2)c1` was 3140 nM; that for `C#CCN(C[C@@H]1[C@@H](OC(=O)Nc2cccs2)[C@@H](OC(=O)Nc2cccs2)Cn2c(=O)ccc(=O)n21)S(=O)(=O)c1ccc(C)cc1` was 1780 nM; that for `CCCCCNC(=O)C(c1cc2ccccc2o1)n1c(=O)c(-c2ccco2)nc2ccccc21` (stereo not drawn) was 1160 nM.
As for `CC(C)(C)NC(=O)C(c1ccccc1)n1c(=O)c(-c2ccco2)nc2ccccc21` (stereo not drawn), the figure is 2160 nM; as for `C#CCN(C[C@@H]1[C@@H](OC(=O)NCc2ccc(OC)c(OC)c2)[C@@H](OC(=O)NCc2ccc(OC)c(OC)c2)Cn2c(=O)ccc(=O)n21)S(=O)(=O)c1ccc(C)cc1`, 5250 nM; as for `CN1C(=O)/C(=C/C=C/c2ccco2)C(=O)NC1=S`, 2960 nM.
As for `COc1ccc(/C=C/C(=O)c2cc(F)ccc2OC(=O)c2ccc(OC)c(OC)c2)cc1OC`, the figure is 2740 nM; as for `CCN1/C(=C/C=C/c2oc3ccc(-c4ccccc4)cc3[n+]2CC)Oc2ccc(-c3ccccc3)cc21`, 1030 nM; as for `CCC(C)NC(=O)Nc1ccc2c(c1)N(C)C(=O)c1ccccc1S2` (stereo not drawn), 4970 nM.
On to `O=c1[nH]c(C2CCN(S(=O)(=O)c3ccc(S(=O)(=O)NC4CC4)cc3)CC2)nc2c1nnn2Cc1ccc(F)cc1`, for which the IC50 is 5660 nM.
The value for `N#Cc1ncc(Cc2ccccc2)nc1C#N` was 8580 nM.
As for `COc1ccc(/C=C\C(=O)CC(O)(c2ccccc2)C(F)(F)F)cc1` (stereo not drawn), the figure is 2890 nM; as for `CCCCCNC(=O)C(c1ccc(OC)cc1)n1c(=O)c(-c2ccco2)nc2ccccc21` (stereo not drawn), 2180 nM; as for `CCCC(=O)NC(c1cccc([N+](=O)[O-])c1)c1ccc2cccnc2c1O` (stereo not drawn), > 39800 nM (inactive).
As for `CC(C)(C)NC(=O)C(c1ccccc1F)n1c(=O)c(-c2ccco2)nc2ccccc21` (stereo not drawn), the figure is 2280 nM.
Consider `COc1ccc(C(C(=O)Nc2c(C)cccc2C)n2c(=O)c(-c3ccco3)nc3ccccc32)cc1` (stereo not drawn), for which the IC50 was 2380 nM.
The value for `Cc1cccc(C)c1NC(=O)C(c1ccccc1F)n1c(=O)c(-c2ccco2)nc2ccccc21` (stereo not drawn) was 2730 nM; that for `CSC(=Nc1ccccc1)N=C(SCc1ccccc1)N(C)C` was 1170 nM; that for `CC1=CC(C)(C)Nc2ccc(OC(=O)C(C)N3C(=O)c4ccccc4C3=O)cc21` (stereo not drawn) was 2640 nM.
As for `COc1ccc(C)c2sc(N(CCN(C)C)C(=O)/C=C/c3cccs3)nc12`, the figure is 9910 nM.
As for `CCC1(C)N=C(c2ccc3c(c2)OCO3)CC(c2ccccc2O)N1` (stereo not drawn), the IC50 was 1570 nM.
For the compound `COc1ccc(NC(=O)c2cc3ccccc3cc2O)cc1`, the IC50 is 9050 nM.
The value for `Cc1cc(C)c2nc(NNC(=O)c3ccc(S(=O)(=O)N4CCCC(C)C4)cc3)sc2c1` (stereo not drawn) was 5270 nM; that for `Cc1oc2c(c1C(=O)c1ccc(Cl)cc1)C(=O)C(=O)c1ccccc1-2` was 1980 nM.
As for `CC(C)(C)NC(=O)C(c1ccnc2ccccc12)n1c(=O)c(-c2ccco2)nc2ccccc21` (stereo not drawn), the figure is 4810 nM; as for `Cc1cccc(C)c1NC(=O)C(c1ccccc1)n1c(=O)c(-c2ccco2)nc2ccccc21` (stereo not drawn), 5190 nM.
The value for `C#CCOCCOCCOCCNc1nc(N2CCN(C(=O)CCCCCCCCCCNC(=O)[C@@H](CCSC)n3cc(CCO)nn3)CC2)nc(N2CCN(C(=O)CCCCCCCCCCNC(=O)[C@@H]([C@H](C)O)n3cc(C)nn3)CC2)n1` was > 39800 nM (inactive); that for `COC(=O)c1cc(=O)n(-c2ccc(F)cc2)c(=Nc2ccc(F)cc2)s1` was 3090 nM; that for `CC(=O)Nc1ccc(S(=O)(=O)N2c3ccc(F)cc3CCC2C)cc1` (stereo not drawn) was “inactive”.
Regarding `CCOC(=O)C1CCCN(C(=O)c2cc(Nc3ccc(OC)cc3)nc3ccccc23)C1` (stereo not drawn), the IC50 result is “inactive”.
As for `CCC(C(=O)OCCN(CC)CC)c1ccccc1` (stereo not drawn), the figure is 2550 nM; as for `O=C1NC(=O)N(c2ccccc2F)C(=O)/C1=C/c1ccc(Oc2ccc([N+](=O)[O-])cn2)cc1`, 1470 nM; as for `CC1CN(Cc2c(O)ccc3c2oc(=O)c2ccccc23)CC(C)O1` (stereo not drawn), 2120 nM.
Turning to `CCC(=O)Nc1cccc(C(=O)/C=C/c2ccccc2)c1`, the IC50 is 2710 nM.
Consider `Cc1nc2c(o1)CCc1ccccc1C2N1CCN(C)CC1` (stereo not drawn), for which the IC50 was 8830 nM.
The value for `O=C(NC1CCCCC1)C(c1ccc(-c2ccccc2)cc1)n1c(=O)c(-c2ccco2)nc2ccccc21` (stereo not drawn) was 1540 nM.
Regarding `COCCN(CCOC)c1nc(N)c2c(N)nc3c(c2c1C#N)CC(=O)N3Cc1ccc(Cl)cc1`, the IC50 entry was “inactive”.
As for `CCSc1ccc2c(c1)N(CCCN1CCN(C)CC1)c1ccccc1S2`, the figure is 5860 nM; as for `CCN(CCCc1ccccc1)CCCc1ccccc1`, 2660 nM; as for `O=C(NC1CCCCC1)C(C1CC1)n1c(=O)c(-c2ccco2)nc2ccccc21` (stereo not drawn), 2380 nM.
For `COc1ccc(C(C(=O)NC2CCCCC2)n2c(=O)c(-c3ccco3)nc3ccccc32)cc1` (stereo not drawn), the IC50 was 1140 nM.
